# From ChEMBL document CHEMBL1201862, “PubChem BioAssay data set” (2004)
#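 How tested: cells in 96-well plates exposed to compound for 48 hours at five concentrations. At the GI50, growth is halved.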 Calls of active or inactive are those of the source. Cut-off read from the data, not from the text of the source: active = GI50 up to about 1.1 µM and inactive = higher.
# Key:
# Assay in all cases: DTP human tumour cell line panel, 48 h
# [1] = test system: KM12
# [2] = test system: SK-MEL-5
# [3] = test system: DMS-273
# [4] = test system: SK-OV-3
# [5] = test system: Malme-3M
# [6] = test system: RPMI-8226
# [7] = test system: LXFL 529
# [8] = test system: HCT-15
# [9] = test system: CAKI-1
# [10] = test system: A549
# [11] = test system: XF498
# [12] = test system: DLD-1
# [13] = test system: OVCAR-4
# [14] = test system: HL-60
# [15] = test system: KM-20L2
# [16] = test system: M14
# [17] = test system: HOP-18
# [18] = test system: U-251
# [19] = test system: HOP-62
# [20] = test system: SK-MEL-28
# [21] = test system: HCT-116
# [22] = test system: SF-539
# [23] = test system: SNB-75
# [24] = test system: EKVX
# [25] = test system: TK-10
# [26] = test system: UACC-257
# [27] = test system: 786-0
# [28] = test system: SNB-19
# [29] = test system: UACC-62
# [30] = test system: NCI-H226
# [31] = test system: SN12C
# [32] = test system: IGROV-1
# [33] = test system: RXF 393
# [34] = test system: MOLT-4
# [35] = test system: K562
# [36] = test system: OVCAR-5
# [37] = test system: LOX IMVI
# [38] = test system: SK-MEL-2
# [39] = test system: ACHN
# [40] = test system: NCI-H460
# [41] = test system: SF-268
# [42] = test system: OVCAR-3
# [43] = test system: UO-31
# [44] = test system: SR
# [45] = test system: HT-29
# [46] = test system: CCRF-CEM
# [47] = test system: COLO 205
# [48] = test system: OVCAR-8
# [49] = test system: HOP-92
# [50] = test system: NCI-H522
# [51] = test system: HCC 2998
# [52] = test system: A498
# [53] = test system: SNB-78
# [54] = test system: RXF 631
# [55] = test system: SW-620
# [56] = test system: NCI-H23
# [57] = test system: M19-MEL
# [58] = test system: SF-295
# [59] = test system: DMS-114
compound,measurement,setting,value
CC1(C)CC(=O)C(C(=O)Nc2cccs2)=C(O)C1,GI50,[1],38.1 µM (inactive)
same,GI50,[2],40.6 µM (inactive)
same,GI50,[3],25.2 µM (inactive)
same,GI50,[4],62.4 µM (inactive)
same,GI50,[5],32.1 µM (inactive)
same,GI50,[6],31 µM (inactive)
same,GI50,[7],31.8 µM (inactive)
same,GI50,[8],33.9 µM
same,GI50,[9],14.6 µM (inactive)
same,GI50,[10],32.1 µM (inactive)
same,GI50,[11],43 µM (inactive)
same,GI50,[12],39.5 µM (inactive)
same,GI50,[13],31.1 µM (inactive)
same,GI50,[14],24.1 µM (inactive)
same,GI50,[15],38.2 µM (inactive)
same,GI50,[16],36.7 µM (inactive)
same,GI50,[17],21.6 µM (inactive)
same,GI50,[18],31.8 µM (inactive)
same,GI50,[19],34.8 µM (inactive)
same,GI50,[20],> 100 µM (inactive)
same,GI50,[21],29.7 µM (inactive)
same,GI50,[22],36.2 µM (inactive)
same,GI50,[23],25.2 µM (inactive)
same,GI50,[24],42 µM (inactive)
same,GI50,[25],64.6 µM (inactive)
same,GI50,[26],47.9 µM (inactive)
same,GI50,[27],49.9 µM (inactive)
same,GI50,[28],31.1 µM (inactive)
same,GI50,[29],29.2 µM (inactive)
same,GI50,[30],23.4 µM (inactive)
same,GI50,[31],39.4 µM (inactive)
same,GI50,[32],32.9 µM (inactive)
same,GI50,[33],29.9 µM (inactive)
same,GI50,[34],28 µM (inactive)
same,GI50,[35],28.1 µM (inactive)
same,GI50,[36],44 µM (inactive)
same,GI50,[37],32.3 µM (inactive)
same,GI50,[38],35.9 µM (inactive)
same,GI50,[39],32.7 µM (inactive)
same,GI50,[40],35.9 µM (inactive)
same,GI50,[41],> 100 µM (inactive)
same,GI50,[42],29.4 µM (inactive)
same,GI50,[43],28.8 µM (inactive)
same,GI50,[44],29.9 µM (inactive)
same,GI50,[45],49.1 µM (inactive)
same,GI50,[46],23 µM (inactive)
same,GI50,[47],19.6 µM (inactive)
same,GI50,[48],34.8 µM (inactive)
same,GI50,[49],27.6 µM (inactive)
same,GI50,[50],37.2 µM (inactive)
same,GI50,[51],48.5 µM (inactive)
same,GI50,[52],28.8 µM (inactive)
same,GI50,[53],36.1 µM (inactive)
same,GI50,[54],36.5 µM (inactive)
same,GI50,[55],38.8 µM (inactive)
same,GI50,[56],30 µM (inactive)
same,GI50,[57],41.2 µM (inactive)
same,GI50,[58],28.9 µM (inactive)
COC(=O)C1=NC(=S)NC(c2ccccc2)C1c1nc2ccccc2s1 (stereo unspecified),GI50,[1],> 100 µM (inactive)
same,GI50,[2],> 100 µM (inactive)
same,GI50,[3],> 100 µM (inactive)
same,GI50,[4],> 100 µM (inactive)
same,GI50,[5],> 100 µM (inactive)
same,GI50,[7],> 100 µM (inactive)
same,GI50,[8],> 100 µM
same,GI50,[9],> 100 µM (inactive)
same,GI50,[10],> 100 µM (inactive)
same,GI50,[12],> 100 µM (inactive)
same,GI50,[13],> 100 µM (inactive)
same,GI50,[14],98.2 µM (inactive)
same,GI50,[15],> 100 µM (inactive)
same,GI50,[16],> 100 µM (inactive)
same,GI50,[17],> 100 µM (inactive)
same,GI50,[18],> 100 µM (inactive)
same,GI50,[19],> 100 µM (inactive)
same,GI50,[20],> 100 µM (inactive)
same,GI50,[21],> 100 µM (inactive)
same,GI50,[22],67.8 µM (inactive)
same,GI50,[23],55.3 µM (inactive)
same,GI50,[24],> 100 µM (inactive)
same,GI50,[25],> 100 µM (inactive)
same,GI50,[26],> 100 µM (inactive)
same,GI50,[27],> 100 µM (inactive)
same,GI50,[28],> 100 µM (inactive)
same,GI50,[29],> 100 µM (inactive)
same,GI50,[30],> 100 µM (inactive)
same,GI50,[31],> 100 µM (inactive)
same,GI50,[32],> 100 µM (inactive)
same,GI50,[33],> 100 µM (inactive)
same,GI50,[34],> 100 µM (inactive)
same,GI50,[38],> 100 µM (inactive)
same,GI50,[39],> 100 µM (inactive)
same,GI50,[40],> 100 µM (inactive)
same,GI50,[41],> 100 µM (inactive)
same,GI50,[42],> 100 µM (inactive)
same,GI50,[43],> 100 µM (inactive)
same,GI50,[44],> 100 µM (inactive)
same,GI50,[45],> 100 µM (inactive)
same,GI50,[46],> 100 µM (inactive)
same,GI50,[47],> 100 µM (inactive)
same,GI50,[48],> 100 µM (inactive)
same,GI50,[49],> 100 µM (inactive)
same,GI50,[59],> 100 µM (inactive)
same,GI50,[51],> 100 µM (inactive)
same,GI50,[52],> 100 µM (inactive)
same,GI50,[53],> 100 µM (inactive)
same,GI50,[54],> 100 µM (inactive)
same,GI50,[55],> 100 µM (inactive)
same,GI50,[56],> 100 µM (inactive)
same,GI50,[57],> 100 µM (inactive)
same,GI50,[58],> 100 µM (inactive)
